Paper PMC2174006 (The Journal of Cell Biology, 2002)

Biological target: T1, Rab32 (Homo sapiens, UniProt Q13637)
T1 sequence (Q13637 1-225): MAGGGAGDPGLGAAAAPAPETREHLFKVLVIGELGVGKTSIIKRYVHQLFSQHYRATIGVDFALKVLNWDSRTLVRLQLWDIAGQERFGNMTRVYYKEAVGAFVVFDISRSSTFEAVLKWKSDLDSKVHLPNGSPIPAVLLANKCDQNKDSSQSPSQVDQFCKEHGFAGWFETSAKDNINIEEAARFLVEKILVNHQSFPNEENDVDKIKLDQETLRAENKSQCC
Assay: radiolabelled nucleotide dissociation
Type: binding
Settings: labelled compound ([3H]GDP); pH 7.5, 50 mM Tris-HCl, high magnesium; GST fusion

In the case of `Nc1nc2c(ncn2[C@@H]2O[C@H](COP(=O)(O)OP(=O)(O)O)[C@@H](O)[C@H]2O)c(=O)[nH]1` [GDP], the “t 1/2 (dissociation)” value is reported as 7.5 min.
